Laboratory results from publication PMC11571207, “Stereorandomized Oncocins with Preserved Ribosome Binding and Antibacterial Activity” (Journal of Medicinal Chemistry, 2024).
In brackets after ≈: the same amount, converted by molar mass. Read-outs that look alike come from different tables or passages of the source. Non-standard residues stand in square brackets, D forms with d. Residues, ends and D or L forms follow the SMILES beside them. No end group written: not given here.

Key:
E. coli W3110 = test: microbe, parasite or virus in culture; conditions: for MIC E. coli, 12.5% MHB / MIC E. coli, Full MHB: E. coli W3110, 16–20 h at 37 °C, broth microdilution; for MIC E. coli, 12.5% MHB: 12.5% Müller–Hinton medium; for MIC E. coli, Full MHB: full Müller–Hinton medium; for MIC E. coli W3110: supplement CSV
Procedure, shortened: (§1)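 Read-out was visible growth after MTT addition, the MIC being the lowest inhibitory peptide concentration. Bacteria grown to log phase in LB were exposed in MH medium to peptide from 64 μg/mL in twofold dilutions for 15-18h at 37°C.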

K. pneumoniae NCTC 418 = test: microbe, parasite or virus in culture; conditions: for MIC K. pneumoniae, 12.5% MHB / MIC K. pneumoniae, Full MHB: K. pneumoniae NCTC 418, 16–20 h at 37 °C; for MIC K. pneumoniae, 12.5% MHB: 12.5% Müller–Hinton medium; for MIC K. pneumoniae, Full MHB: full Müller–Hinton medium; for MIC K. pneumoniae NCTC418: supplement CSV
Procedure, shortened: as §1

P. aeruginosa PAO1 = test: microbe, parasite or virus in culture; conditions: for MIC P. aeruginosa, 12.5% MHB / MIC P. aeruginosa, Full MHB: P. aeruginosa PAO1, 16–20 h at 37 °C; for MIC P. aeruginosa, 12.5% MHB: 12.5% Müller–Hinton medium; for MIC P. aeruginosa, Full MHB: full Müller–Hinton medium; for MIC P. aeruginosa PAO1: supplement CSV
Procedure, shortened: as §1

A. baumannii ATCC19606 = test: microbe, parasite or virus in culture; conditions: for MIC A. baumannii, 12.5% MHB / MIC A. baumannii, Full MHB: A. baumannii ATCC19606, 16–20 h at 37 °C; for MIC A. baumannii, 12.5% MHB: 12.5% Müller–Hinton medium; for MIC A. baumannii, Full MHB: full Müller–Hinton medium; for MIC A. baumannii ATCC19606: supplement CSV
Procedure, shortened: as §1

S. aureus COL (MRSA) = test: microbe, parasite or virus in culture; conditions: for MIC S. aureus, 12.5% MHB / MIC S. aureus, Full MHB: S. aureus COL (MRSA), 16–20 h at 37 °C; for MIC S. aureus, 12.5% MHB: 12.5% Müller–Hinton medium; for MIC S. aureus, Full MHB: full Müller–Hinton medium; for MIC S. aureus COL (MRSA): supplement CSV
Procedure, shortened: as §1

[1] = tested on: P. aeruginosa PA14 4.13 (phoQ); conditions: for MIC P. aeruginosa PA14 4.13 (phoQ), 12.5% MHB / MIC P. aeruginosa PA14 4.13 (phoQ), full MHB: polymyxin B resistant strain, 16–20 h at 37 °C; for MIC P. aeruginosa PA14 4.13 (phoQ), 12.5% MHB: 12.5% MHB pH 7.4; for MIC P. aeruginosa PA14 4.13 (phoQ), full MHB: full MHB pH 7.4; for MIC P. aeruginosa PA14 4.13: supplement CSV
K. pneumoniae OXA-48 = test: microbe, parasite or virus in culture; conditions: for MIC K. pneumoniae OXA-48, 12.5% MHB / MIC K. pneumoniae OXA-48, full MHB: carbapenem-resistant, 16–20 h at 37 °C; for MIC K. pneumoniae OXA-48, 12.5% MHB: 12.5% MHB pH 7.4; for MIC K. pneumoniae OXA-48, full MHB: full MHB pH 7.4; for MIC K. pneumoniae OXA-48: supplement CSV
Procedure, shortened: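 Minimal inhibitory concentrations come from broth microdilution in MH medium, with a top peptide concentration of 64 μg/mL halved serially.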

[2] = tested on: E. coli BW25113 sbmA::kan; conditions: Table S1, sbmA::kan mutant, 16-20 h at 37 °C; for MIC E. coli BW25113 SbmA-, 12.5% MH: 12.5% Müller-Hinton medium pH 7.4
Description: (§2) Minimum inhibitory concentration assay
(§3) Antimicrobial activity was assayed against P. aeruginosa PAO1, K. pneumoniae NCTC418, E. coli W3110, A. baumannii ATCC 19606, methicillin-resistant S. aureus COL (MRSA), and for selected peptides on P. aeruginosa PA14 and the polymyxin-B-resistant derivative PA14 2P4, as well as the clinical isolates ZEM-1A and ZEM9A, K. pneumoniae OXA-48, S. aureus Newman, Enterobacter cloacae and Burkholderia cenocepacia. The minimal inhibitory concentration (MIC) was determined by using broth microdilution method. A colo ny of bacteria was picked and grown in Luria-Bertani (LB) medium overnight at 37°C. For E. coli BW25113 sbmA::kan the medium was supplemented with 25 mg/L of kanamycin. The next day, the culture was then regrown in LB medium to log phase (OD600 = 0.6 to 0.8), which lasted approximately 4 h, and diluted to an OD600 of 0.022 in the desired medium. Stock solutions of 1 mg/mL of the samples were prepared in sterilized milliQ water and diluted to the beginning concentration of 64 μg/mL in 300 μL Mueller Hinton (MH)-medium. The diluted samples were added to first well of 96-well microtiter plate (TPP, untreated, Faust Laborbedarf, AG, Schaffhausen) and diluted serially by ½. Finally, 4 μL of the bacterial suspension was inoculated into the sample solutions (150 μL/well) with a final inoculation of about 5∙10^5 CFU/mL. The plates were then incubated at 37°C for 15-18h. For each assay, sterility (broth only) and growth control (broth with bacterial inoculum, without antibiotics) were checked with two columns in the plate. The next day, 15 μL of 3-(4,5-dimethylthiazol-2-yl)-2,5-diphenyltetrazolium bromide (MTT) was added to each well of the plate, such a way that MIC was defined as the lowest concentration of the peptide that inhibited visible growth of the tested […]
(§4) Table S1. Activity of stereorandomized and diastereomeric oncocins against E. coli BW25113 WT and BW25113 sbmA::kan mutant in full and 12.5% MH, at pH 7.4. […]
(§5) a) Minimum inhibitory concentration (MIC, μg/mL) was determined on E. coli BW25113 WT and […]

E. coli BW25113 WT = conditions: Table S1, 16-20 h at 37 °C; for MIC E. coli BW25113 WT, 12.5% MH: 12.5% Müller-Hinton medium pH 7.4; for MIC E. coli BW25113 WT, Full MH: full Müller-Hinton medium pH 7.4
Description: as §2, §3, §4, §5

| Molecule | MIC E. coli, 12.5% MHB (E. coli W3110) | MIC E. coli, Full MHB (E. coli W3110) | MIC E. coli W3110 (E. coli W3110; 12.5% MH pH 7.4) | MIC E. coli W3110 (E. coli W3110; full MH pH 7.4) | MIC K. pneumoniae, 12.5% MHB (K. pneumoniae NCTC 418) | MIC K. pneumoniae, Full MHB (K. pneumoniae NCTC 418) | MIC K. pneumoniae NCTC418 (K. pneumoniae NCTC 418; 12.5% MH pH 7.4) | MIC K. pneumoniae NCTC418 (K. pneumoniae NCTC 418; full MH pH 7.4) | MIC P. aeruginosa, 12.5% MHB (P. aeruginosa PAO1) | MIC P. aeruginosa, Full MHB (P. aeruginosa PAO1) | MIC P. aeruginosa PAO1 (P. aeruginosa PAO1; 12.5% MH pH 7.4) | MIC P. aeruginosa PAO1 (P. aeruginosa PAO1; full MH pH 7.4) | MIC A. baumannii, 12.5% MHB (A. baumannii ATCC19606) | MIC A. baumannii, Full MHB (A. baumannii ATCC19606) | MIC A. baumannii ATCC19606 (A. baumannii ATCC19606; 12.5% MH pH 7.4) | MIC A. baumannii ATCC19606 (A. baumannii ATCC19606; full MH pH 7.4) | MIC S. aureus, 12.5% MHB (S. aureus COL (MRSA)) | MIC S. aureus, Full MHB (S. aureus COL (MRSA)) | MIC S. aureus COL (MRSA) (S. aureus COL (MRSA); 12.5% MH pH 7.4) | MIC S. aureus COL (MRSA) (S. aureus COL (MRSA); full MH pH 7.4) | also measured |
| --- | --- | --- | --- | --- | --- | --- | --- | --- | --- | --- | --- | --- | --- | --- | --- | --- | --- | --- | --- | --- | --- |
| CC[C@@H](C)[C@@H](NC(=O)[C@@H](CCCNC(=N)N)NC(=O)[C@@H](CCCNC(=N)N)NC(=O)[C@H]1CCCN1C(=O)[C@H]1CCCN1C(=O)[C@@H](CCCNC(=N)N)NC(=O)[C@H]1CCCN1C(=O)[C@@H](CCCNC(=N)N)NC(=O)[C@H]1CCCN1C(=O)[C@@H](CC(C)C)NC(=O)[C@@H](Cc1ccc(O)cc1)NC(=O)[C@H]1CCCN1C(=O)[C@H]1CCCN1C(=O)[C@@H](CCCCN)NC(=O)[C@@H](CC(=O)O)NC(=O)[C@H](N)C(C)C)C(=O)N[C@H](Cc1ccc(O)cc1)C(=O)N[C@H](CC(N)=O)C(=O)N[C@H](CCCNC(=N)N)C(N)=O [D-Onc] (H-[dV][dD][dK][dP][dP][dY][dL][dP][dR][dP][dR][dP][dP][dR][dR][dI][dY][dN][dR]-NH2) | 8 µg/mL (≈ 3.35 µM) | 32 µg/mL (≈ 13.4 µM) | 8 µg/mL (≈ 3.35 µM) | 32 µg/mL (≈ 13.4 µM) | > 16 µg/mL | > 64 µg/mL | >16 µg/mL | >64 µg/mL | 8 µg/mL (≈ 3.35 µM) | > 64 µg/mL | 8 µg/mL (≈ 3.35 µM) | >64 µg/mL | 16 µg/mL (≈ 6.69 µM) | > 64 µg/mL | 16 µg/mL (≈ 6.69 µM) | >64 µg/mL | >64 / 64 μg/mL | >64 / 64 μg/mL | 64 µg/mL (≈ 26.8 µM) | >64 µg/mL | MIC P. aeruginosa PA14 4.13 (phoQ), 12.5% MHB [1]: 16 µg/mL (≈ 6.69 µM); MIC P. aeruginosa PA14 4.13 (phoQ), full MHB [1]: > 64 µg/mL; MIC P. aeruginosa PA14 4.13 ([1]; 12.5% MH pH 7.4): 16 µg/mL (≈ 6.69 µM); MIC P. aeruginosa PA14 4.13 ([1]; full MH pH 7.4): >64 µg/mL; MIC K. pneumoniae OXA-48, 12.5% MHB (K. pneumoniae OXA-48): >64/64 μg/mL; MIC K. pneumoniae OXA-48, full MHB (K. pneumoniae OXA-48): >64/64 μg/mL; MIC K. pneumoniae OXA-48 (K. pneumoniae OXA-48; 12.5% MH pH 7.4): 64 µg/mL (≈ 26.8 µM); MIC K. pneumoniae OXA-48 (K. pneumoniae OXA-48; full MH pH 7.4): >64 µg/mL; MIC E. coli BW25113 SbmA-, 12.5% MH [2]: 16 µg/mL (≈ 6.69 µM); MIC E. coli BW25113 SbmA-, Full MH ([2]; full Müller-Hinton medium pH 7.4): > 64 µg/mL; MIC E. coli BW25113 WT, 12.5% MH (E. coli BW25113 WT): 16 µg/mL (≈ 6.69 µM); MIC E. coli BW25113 WT, Full MH (E. coli BW25113 WT): > 64 µg/mL |
| VDKPPYLPRPRPPRRIYNR-NH2 [L-Onc, reference compound] | 2 µg/mL | 4 µg/mL | 2 µg/mL | 4 µg/mL | 4 / 4 μg/mL | 4 / 4 μg/mL | 4 µg/mL | 4 µg/mL | 16 µg/mL | > 64 µg/mL | 16 µg/mL | >64 µg/mL | 4 µg/mL | 32 µg/mL | 4 µg/mL | 32 µg/mL | 32 µg/mL | > 64 µg/mL | 32 µg/mL | >64 µg/mL | MIC P. aeruginosa PA14 4.13 (phoQ), 12.5% MHB [1]: 16 µg/mL; MIC P. aeruginosa PA14 4.13 (phoQ), full MHB [1]: > 64 µg/mL; MIC P. aeruginosa PA14 4.13 ([1]; 12.5% MH pH 7.4): 16 µg/mL; MIC P. aeruginosa PA14 4.13 ([1]; full MH pH 7.4): >64 µg/mL; MIC K. pneumoniae OXA-48, 12.5% MHB (K. pneumoniae OXA-48): 2 µg/mL; MIC K. pneumoniae OXA-48, full MHB (K. pneumoniae OXA-48): 32 µg/mL; MIC K. pneumoniae OXA-48 (K. pneumoniae OXA-48; 12.5% MH pH 7.4): 2 µg/mL; MIC K. pneumoniae OXA-48 (K. pneumoniae OXA-48; full MH pH 7.4): 32 µg/mL; MIC E. coli BW25113 SbmA-, 12.5% MH [2]: 8 µg/mL; MIC E. coli BW25113 WT, 12.5% MH (E. coli BW25113 WT): 4 µg/mL; MIC E. coli BW25113 WT, Full MH (E. coli BW25113 WT): 16 to 32 µg/mL |
